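Cultured in 96-well plates, cells were exposed to test compound for 48 hours across five concentrations. The concentration for full growth arrest is given as TGI.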
Legend:
Test in all cases: NCI tumour cell line growth inhibition, 48 h
SN12K1 renal = test system: SN12K1 renal
P388/ADR leukemia = test system: P388/ADR leukemia
DMS 273 small cell lung = test system: DMS 273 small cell lung
SNB-78 CNS = test system: SNB-78 CNS
P388 leukemia = test system: P388 leukemia
HOP-18 NSCLC = test system: HOP-18 NSCLC
DLD-1 colon = test system: DLD-1 colon
LXFL 529 NSCLC = test system: LXFL 529 NSCLC
RXF-631 renal = test system: RXF-631 renal

| Compound | TGI (SN12K1 renal) | TGI (P388/ADR leukemia) | TGI (DMS 273 small cell lung) | TGI (SNB-78 CNS) | TGI (P388 leukemia) | TGI (HOP-18 NSCLC) | TGI (DLD-1 colon) | TGI (LXFL 529 NSCLC) | TGI (RXF-631 renal) |
| --- | --- | --- | --- | --- | --- | --- | --- | --- | --- |
| COc1ccc(C2COc3cc(OC(C)=O)c(OC(C)=O)cc3C2)cc1 (stereo not drawn) | 35.7 µM | 17.7 µM | 52.7 µM | 81.4 µM | 33.5 µM | 19.3 µM | 54.8 µM | – | – |
| O=C1C(Cl)N(c2ccc(Cl)cc2)C1c1c[nH]c2ccccc12 (stereo not drawn) | – | – | – | – | – | – | – | 30.2 µM | – |
| O=C(O)c1ccc(Nc2c3ccccc3nc3ccccc23)cc1 | > 100 µM | 98.4 µM | > 100 µM | > 100 µM | > 46.6 µM | > 100 µM | – | – | – |
| COc1ccc(N2C(=O)/C(=C(\C)c3cc4ccccc4oc3=O)N=C2c2cc([N+](=O)[O-])ccc2Cl)cc1 | – | – | – | > 100 µM | – | > 100 µM | > 100 µM | > 100 µM | > 100 µM |
| CCN(CC)CC1CCCCCCCCCCC1=O (stereo not drawn) | – | – | > 100 µM | > 100 µM | – | – | > 100 µM | > 100 µM | – |
| CC(=O)N(C)c1ccc(Nc2cc(C)[nH]c3ccc4ncnc4c23)cc1 | 16.6 µM | 228 µM | 24.3 µM | 53.6 µM | 49.2 µM | 53.1 µM | 74.2 µM | – | – |
| O=c1[nH]c2c(nc1NC13CC4CC(CC(C4)C1)C3)c(=O)oc1ccccc12 | – | – | > 100 µM | – | – | – | > 100 µM | > 100 µM | – |

Source: PubChem BioAssay (NCI)
